In US5378848A, “Condensed imidazopyridine derivatives” (Shionogi & Co., Ltd., priority 1992, dated 1995):

Key:
Benzodiazepine Receptor = experiment: Test on Binding to Benzodiazepine Receptor (inhibition of specific binding of tritium-labeled diazepam); design: species or system male Wistar rats; conditions: rat cerebral cortex; 2 nM tritium-labeled diazepam; 0° C., 60 minutes; Ki=IC50÷(1+L/Kd)
Experimental: This test was carried out modifying partially a method of Moehler & Okada, Science, 198, 849-851 (1977). Receptor preparation was provided from the cerebral cortex of male Wistar rats (11-13 weeks age). Inhibitory action of the test compound on the specific binding of tritium-labeled diazepam to the receptor was evaluated as follows: 2 nM tritium-labeled diazepam and an aqueous solution of the test compound in 5 or 6 different concentrations were incubated with the receptor preparation at 0° C. for 60 minutes. The 50% inhibitory concentration (IC50) was measured by the concentration-response curve. In addition, the inhibitory constant (Ki) of the test compound was calculated by dissociation constant (Kd) and concentration (L) of tritium-labelled diazepam.

[1] = test system: Pentylenetetrazole-Induced Convulsion; experiment: Antagonism of Pentylenetetrazole-Induced Convulsion (agonistic activity); type: in vivo; conditions: Mus musculus, iv; male mice; test compound i.v.; pentylenetetrazole 125 mg/kg s.c.; 2-hour observation; probit method; read-out: ED50 (dose required to prevent tonic convulsion and death in 50% of the animals)
Experimental: (§1) Agonistic activity was evaluated in this Experiment. Pentylenetetrazole was subcutaneously administered male mice (a group of 8-16 male mice was employed in each test) at a dose of 125 mg/kg immediately after intravenous injection of the test compound. The dose (ED50) required to prevent tonic convulsion and death in 50% of the animals during subsequent 2-hour observation period was calculated by the probit method.

[2] = test system: Pentylenetetrazole-Induced Convulsion; experiment: Potentiation of Pentylenetetrazole-Induced Convulsion (inverse agonist activity); type: in vivo; conditions: Mus musculus, iv; male mice; test compound i.v.; pentylenetetrazole 90 mg/kg s.c.; 2-hour observation; probit method; read-out: ED50 (dose required to produce tonic convulsion and death in 50% of the animals)
Experimental: as §1, with “Inverse agonist” for “Agonistic”, “subscutaneously” for “subcutaneously”, “90” for “125”, “produce” for “prevent”

human memory = conditions: M. Sarter et al., TINS 11, 13 (1988); cited from earlier work

In the case of `c1ccc(-c2nc3cnc4c(c3[nH]2)CCCC4)cc1` [Ia-1, 2-Phenyl-6,7,8,9-tetrahydro-1H-imidazo[4,5-c]quinoline], the Ki (Benzodiazepine Receptor) is reported as 13.7 nM and the ED50 [1] is reported as 7.85 mg/kg.
In the case of `c1csc(-c2nc3cnc4c(c3[nH]2)CCCC4)c1` [Ia-3], the Ki (Benzodiazepine Receptor) is reported as 1.9 nM.
Work on `c1coc(-c2nc3cnc4c(c3[nH]2)CCCC4)c1` [Ia-5] yielded a Ki (Benzodiazepine Receptor) of 3.46 nM.
Compound `Cc1cc(-c2nc3cnc4c(c3[nH]2)CCCC4)on1` [Ia-6] has a Ki (Benzodiazepine Receptor) of 2.19 nM and an ED50 [1] of 0.17 mg/kg.
For `c1cc(-c2nc3cnc4c(c3[nH]2)CCCC4)no1` [Ia-7, 2-(3-Isoxazolyl) -6,7,8,9-tetrahydro-1H-imidazo[4,5-c]quinoline], the Ki (Benzodiazepine Receptor) was 1.3 nM.
`Cc1cc(-c2nc3cnc4c(c3[nH]2)COCC4)on1` [Ib-5] gave a Ki (Benzodiazepine Receptor) of 6.97 nM and an ED50 [1] of 0.8 mg/kg.
Compound `c1cc(-c2nc3cnc4c(c3[nH]2)COCC4)no1` [Ib-7, 2-(3-Isoxazolyl)-1,6,7,9-tetrahydroimidazo[4,5-d]pyrano[4,3-b]pyridine] has an ED50 [2] of 1.27 mg/kg and a Ki (Benzodiazepine Receptor) of 2.09 nM.
With `c1csc(-c2nc3cnc4c(c3[nH]2)CCCCC4)c1` [Ic-3] the Ki (Benzodiazepine Receptor) was 6.06 nM.
With `c1cc(-c2nc3cnc4c(c3[nH]2)CCCCC4)no1` [Ic-6] the Ki (Benzodiazepine Receptor) was 2.29 nM.
With `Cc1cc(-c2nc3cnc4c(c3[nH]2)CCCCC4)on1` [Ic-7] the Ki (Benzodiazepine Receptor) was 9.47 nM and the ED50 [1] was 1.05 mg/kg.
With `c1cc(-c2nc3cnc4c(c3[nH]2)CCC4)no1` [Id-1] the ED50 [2] was 0.4 mg/kg and the Ki (Benzodiazepine Receptor) was 2.55 nM.
`Cc1cc(-c2nc3cnc4c(c3[nH]2)CCC4)on1` [Id-2] gave a Ki (Benzodiazepine Receptor) of 8.94 nM and an ED50 [1] of 0.74 mg/kg.
Compound `CC1(C)Cc2ncc3nc(-c4ccon4)[nH]c3c2C1` [Ie-1, 2-(3-Isoxazolyl]-7,7-dimethyl-1H-imidazo[4,5-d]-cyclopenta[b]pyridine] has an ED50 [2] of 0.25 mg/kg and a Ki (Benzodiazepine Receptor) of 7.2 nM.
`c1cc(-c2nc3cnc4c(c3[nH]2)CSCC4)no1` [If-1, 2-(3-Isoxazolyl)-1,6,7,9-tetrahydroimidazo[4,5-d]-thiopyrano[4,3-b]pyridine] showed an ED50 [2] of 0.96 mg/kg and a Ki (Benzodiazepine Receptor) of 0.44 nM.
`CCOC(=O)N1CCc2ncc3nc(-c4ccon4)[nH]c3c2C1` [Ig-1, 2-(3-isoxazolyl)-8-ethoxycarbonyl-6,7,8,9-tetrahydro-1H-imidazo[4,5-c]naphthylidine] showed a Ki (Benzodiazepine Receptor) of 2.8 nM and an ED50 [1] of 3.69 mg/kg.
For `CN1C(=O)CN=C(c2ccccc2)c2cc(Cl)ccc21` [diazepam], the “effect on human memory” value (human memory) is given as “inhibits human memory”.
